Test results: PubChem BioAssay (NCI)
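Compound exposure: 48 hours, 5 concentrations, 96-well plates. GI50 marks 50% less growth. At the TGI there is no net growth.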

Tests used:
Assay in all cases: NCI anticancer screen, dose series, 48 h
HCT-15 colon = system: HCT-15 colon
M14 melanoma = system: M14 melanoma
OVCAR-4 ovarian = system: OVCAR-4 ovarian
OVCAR-8 ovarian = system: OVCAR-8 ovarian
UO-31 renal = system: UO-31 renal
UACC-257 melanoma = system: UACC-257 melanoma
BT-549 breast = system: BT-549 breast
MDA-MB-435 = system: MDA-MB-435
MDA-MB-231 breast = system: MDA-MB-231 breast
SR leukemia = system: SR leukemia
SF-539 CNS = system: SF-539 CNS

| Compound | TGI (HCT-15 colon) [µM] | TGI (M14 melanoma) [µM] | TGI (OVCAR-4 ovarian) [µM] | TGI (OVCAR-8 ovarian) [µM] | TGI (UO-31 renal) [µM] | TGI (UACC-257 melanoma) [µM] | TGI (BT-549 breast) [µM] | TGI (MDA-MB-435) [µM] | TGI (MDA-MB-231 breast) [µM] | TGI (SR leukemia) [µM] | TGI (SF-539 CNS) [µM] | GI50 (OVCAR-4 ovarian) [µM] | GI50 (UO-31 renal) [µM] | GI50 (SF-539 CNS) [µM] | GI50 (MDA-MB-435) [µM] |
| --- | --- | --- | --- | --- | --- | --- | --- | --- | --- | --- | --- | --- | --- | --- | --- |
| CN(C)C(=O)C(F)(F)C(c1ccccc1Br)C1C(=O)N(C)C(=O)N(C)C1=O (stereo not given) | > 100 | > 100 | > 100 | > 100 | > 100 | > 100 | > 100 | > 100 | > 100 | – | – | – | – | – | – |
| NC(Cc1ccccc1)C(=O)OCN1C(=O)C2C3C=CC(C2C1=O)C1C(=O)N(COC(=O)C(N)Cc2ccccc2)C(=O)C31 (stereo not given) | 78.4 | > 100 | – | > 100 | > 100 | > 100 | > 100 | > 100 | > 100 | 53.4 | > 100 | – | – | – | – |
| CCOC(=O)C1=C(O)CC(=O)N=C1N1CCCC1 | > 100 | > 100 | > 100 | > 100 | > 100 | > 100 | – | > 100 | > 100 | > 100 | > 100 | – | – | – | – |
| CN(C)S(=O)(=O)c1ccc2[nH]c(O)c(C3=Nc4ccccc4C3=O)c2c1 | > 100 | > 100 | > 100 | > 100 | > 100 | > 100 | 28.9 | > 100 | 52.3 | 35.9 | – | – | – | – | – |
| COC(=O)CN1CCN(c2cccc3c2CCCC3)CC1 | > 100 | > 100 | > 100 | > 100 | > 100 | > 100 | – | > 100 | > 100 | > 100 | > 100 | – | – | – | – |
| Cc1ccc(C)c2c1C1CCCCC3(OCCCO3)C21O (stereo not given) | > 100 | > 100 | > 100 | > 100 | > 100 | > 100 | – | – | – | – | > 100 | – | – | – | – |
| Cc1c(C#N)c2nnn(-c3cccc(Cl)c3)c(=O)n2c1-c1ccccc1 | > 100 | > 100 | > 100 | > 100 | > 100 | > 100 | > 100 | – | 6.1 | 2.69 | 10.4 | – | – | – | – |
| Cc1ccc(S(=O)(=O)OC[C@@]2(C)CC[C@]3(C)CC[C@]4(C)C(=C3C2)C=C[C@@H]2[C@@]3(C)CCCNC(C)(C)[C@@H]3CC[C@]24C)cc1 | – | – | 3.16 | – | 2.85 | – | – | 3.07 | – | – | 3.11 | 1.66 | 1.46 | 1.71 | 1.64 |
| CCOC(=O)N1c2ccccc2C(C)=CC(C)C1C (stereo not given) | > 100 | 80 | > 100 | 44.1 | > 100 | 88.5 | – | 15.8 | 78.4 | 55.1 | 42.7 | – | – | – | – |
| Clc1cc(N/N=C(\c2ccccc2)c2ccccn2)ncn1 | – | > 100 | > 100 | – | – | 4.65 | > 100 | > 100 | 0.0669 | 3.08 | 3.26 | – | – | – | – |
| COC(=O)/C=C(C)/C=C\COC1CCCCO1 (stereo not given) | > 100 | > 100 | > 100 | > 100 | > 100 | > 100 | > 100 | > 100 | > 100 | > 100 | – | – | – | – | – |
| O=C1Cc2cc3ccccc3nc2-c2ccccc2N1 | > 100 | > 100 | > 100 | > 100 | > 100 | > 100 | > 100 | > 100 | > 100 | – | > 100 | – | – | – | – |
| C[N+](C)(CCNc1ccc(NCC[N+](C)(C)Cc2ccc([N+](=O)[O-])cc2)c2c1C(=O)c1c(O)ccc(O)c1C2=O)Cc1ccc([N+](=O)[O-])cc1 | > 50 | > 50 | > 50 | > 50 | > 50 | > 50 | > 50 | > 50 | > 50 | – | > 50 | – | – | – | – |
| Cc1cccc2c(=O)c3c(O)cc(O)cc3n(C)c12 | > 100 | > 100 | > 100 | > 100 | – | > 100 | > 100 | > 100 | > 100 | > 100 | > 100 | – | – | – | – |
| CC1(C)N=C(C(N)=O)c2[nH]cnc2N1 | > 100 | > 100 | > 100 | > 100 | – | > 100 | – | > 100 | > 100 | > 100 | > 100 | – | – | – | – |
| CC(=O)c1csc2c1C(=O)c1ccccc1C2=O | 10.3 | 2.65 | 18.3 | 7.11 | 6.13 | 2.92 | 3.01 | 3.97 | > 62.9 | – | 5.65 | – | – | – | – |
| CCOC(=O)c1ccc(N(CCOS(C)(=O)=O)CCOS(C)(=O)=O)cc1 | > 100 | > 100 | > 100 | > 100 | 39.3 | > 100 | > 100 | > 100 | > 100 | – | 62.1 | – | – | – | – |
| S=C(NCc1ccccn1)N/N=C/c1ccccn1 | > 100 | > 100 | > 30.5 | > 100 | 32.6 | < 0.01 | – | > 100 | – | 0.0113 | 0.396 | – | – | – | – |
| O=c1cc(NNc2cccc3ccccc23)[nH]c(=O)[nH]1 | 24.8 | 29.8 | 31.2 | 36.8 | 29.8 | 29.4 | 30.2 | 30.7 | 26.2 | – | 29 | – | – | – | – |
| CC(=O)N[C@@H](Cc1ccc(O)cn1)C(=O)NCc1ccc(Cl)cc1 | > 100 | > 100 | > 100 | > 100 | > 100 | > 100 | > 100 | > 100 | – | – | > 100 | – | – | – | – |
| OC12CCC3(OC4CCCCO4)c4ccccc4C3C1c1ccccc12 (stereo not given) | > 100 | > 100 | > 100 | > 100 | > 100 | > 100 | – | – | – | > 100 | – | – | – | – | – |
| CC1OC(OC2C(O)CC(OC3C(O)CC(OC4CCC5(C)C(CCC6C5CCC5(C)C(C7=CC(=O)OC7)C(O)CC65O)C4)OC3C)OC2C)CC(O)C1O (stereo not given) | 1.58 | 1.99 | – | 0.813 | 1.15 | 2.07 | 0.339 | 1.27 | – | > 100 | 0.217 | – | – | – | – |
